Each structure is given as a SMILES string. Like-named read-outs stand apart in the source and are kept apart here.

The EC50 is the concentration giving half of the maximal effect.

Assay [1] deals with KKAY mice. Put plainly: Hypoglycemic and hypolipidemic actions in mice (Test Example 1). The class given is in vivo. The following applies: Mus musculus, po, 96 h, 0.005% in powdery diet, four days, non-treated group taken as 100%. The essentials: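 KKAY mice (9 to 12 weeks old, 5 per group) were fed diet containing 0.005% test compound ad libitum for four days. Plasma glucose and triglycerides from orbital venous blood were measured enzymatically, reported as % decrease relative to untreated group (100%).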

Assay [2] concerns the target T1, PPARγ-RXRα heterodimer (Homo sapiens, UniProt P37231).
T1 construct: expressed in transfected cells; host or cells: CHO-K1
T1 sequence (P37231 1-477 isoform P37231-2): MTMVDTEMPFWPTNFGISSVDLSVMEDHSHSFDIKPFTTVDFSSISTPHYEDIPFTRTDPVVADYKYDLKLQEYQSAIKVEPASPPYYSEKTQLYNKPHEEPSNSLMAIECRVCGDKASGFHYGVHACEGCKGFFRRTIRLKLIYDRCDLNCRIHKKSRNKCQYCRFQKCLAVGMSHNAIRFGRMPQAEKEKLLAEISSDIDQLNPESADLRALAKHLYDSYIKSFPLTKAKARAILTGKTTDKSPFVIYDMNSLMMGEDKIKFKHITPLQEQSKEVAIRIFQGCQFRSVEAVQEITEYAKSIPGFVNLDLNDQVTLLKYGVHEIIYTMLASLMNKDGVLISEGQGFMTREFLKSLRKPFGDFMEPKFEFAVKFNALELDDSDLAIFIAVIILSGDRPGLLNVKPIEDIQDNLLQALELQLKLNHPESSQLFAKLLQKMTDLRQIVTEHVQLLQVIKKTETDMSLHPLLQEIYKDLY
T1 sequence (P19793 1-462 partner): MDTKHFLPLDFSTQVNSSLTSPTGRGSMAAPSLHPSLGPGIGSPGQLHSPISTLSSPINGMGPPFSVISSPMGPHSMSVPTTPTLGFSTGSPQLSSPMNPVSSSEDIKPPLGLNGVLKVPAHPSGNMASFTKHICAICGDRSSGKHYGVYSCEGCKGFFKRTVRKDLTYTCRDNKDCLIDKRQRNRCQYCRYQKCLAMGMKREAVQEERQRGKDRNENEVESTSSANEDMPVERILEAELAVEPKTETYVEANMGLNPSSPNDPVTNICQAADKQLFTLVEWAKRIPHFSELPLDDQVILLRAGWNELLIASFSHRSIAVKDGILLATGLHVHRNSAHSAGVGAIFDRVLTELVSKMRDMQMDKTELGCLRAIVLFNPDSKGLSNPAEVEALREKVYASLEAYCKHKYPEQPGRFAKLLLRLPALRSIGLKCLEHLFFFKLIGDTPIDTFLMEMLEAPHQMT
The assay is described as follows: PPARγ-RXRα heterodimer ligand activity, luciferase reporter in PPARγ:RXRα:4ERPP/CHO-K1 cells (Test Example 3). The note with it: 18-48 hours, concentration for 50% of the maximum fold induction. The class given is cell-based. The essentials:
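Stable CHO-K1 line co-expressing hPPARγ/RXR with 4ERPP-TK luciferase reporter, 2×10^4 cells per well, treated 18-48 h at 37° C. in HAM F12 with 0.1% fatty acid-free BSA. Luciferase fold induction versus untreated taken as 1; EC50 is concentration giving 50% of maximal fold induction.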
On the technique in general: In a reporter assay the amount or activity of a reporter protein is the signal.

Where [3] appears, read: rate of decrease in blood glucose level, read-out: Hypoglycemic action (%).
Where [4] appears, read: rate of decrease in blood triglyceride level, read-out: Hypolipidemic action (%).

Take `O=C(O)CCc1cc(OCCCc2cn(-c3ccc(C(F)(F)F)cn3)nc2C2CCCCC2)nn1-c1ccccc1` [Example 189, 3-[3-(3-{3-cyclohexyl-1-[5-(trifluoromethyl)-2-pyridyl]-1H-pyrazol-4-yl}propoxy)-1-phenyl-1H-pyrazol-5-yl]propionic acid]: the values for the inhibition in vivo at 0.005 % in diet in assay [1] (setting [3]) and in assay [1] (setting [4]) were 50% and 38%, respectively. For the same compound, the EC50 in assay [2] is 0.014 µM.
As for `CCOc1nn(-c2ccc(C(F)(F)F)cn2)cc1CCCOc1cc(CCC(=O)O)n(-c2ccccc2)n1` [Example 42, 3-[3-(3-{3-ethoxy-1-[5-(trifluoromethyl)-2-pyridyl]-1H-pyrazol-4-yl}propoxy)-1-phenyl-1H-pyrazol-5-yl]propionic acid], the inhibition in vivo at 0.005 % in diet in assay [1] (setting [3]) amounted to 32%; in assay [1] (setting [4]) it was 19%. Also, it took 0.019 µM to reach a half-maximal effect in assay [2] (EC50).
Take `CCC(CC)c1nn(-c2ccc(C(F)(F)F)nn2)cc1CCCOc1c(C)cccc1CC(=O)O` [Example 340, [2-(3-{3-(1-ethylpropyl)-1-[6-(trifluoromethyl)pyridazin-3-yl]-1H-pyrazol-4-yl}propoxy)-3-methylphenyl]acetic acid]: the inhibition in vivo at 0.005 % in diet in assay [1] (setting [3]) is 49%; in assay [1] (setting [4]) it was 55%. Besides, in assay [2], it took 0.022 µM to reach a half-maximal effect (EC50).
Regarding `CCc1cccc(CC(=O)O)c1OCCCc1cn(-c2ccc(C(F)(F)F)cn2)nc1C(C)C` [Example 227, [3-ethyl-2-(3-{3-isopropyl-1-[5-(trifluoromethyl)-2-pyridinyl]-1H-pyrazol-4-yl}propoxy)phenyl]acetic acid], the results for the inhibition in vivo at 0.005 % in diet in assay [1] (setting [3]) and in assay [1] (setting [4]) were 43% and 26%, respectively. The compound also displayed a concentration giving a half-maximal response (EC50) in assay [2] of 0.022 µM.
Taken in the same sequence, the figures for `COc1cccc(CC(=O)O)c1OCCCc1cn(-c2ccc(Cl)cn2)nc1C(C)C` [Example 311, (2-{3-[1-(5-chloro-2-pyridinyl)-3-isopropyl-1H-pyrazol-4-yl]propoxy}-3-methoxyphenyl)acetic acid] were 52%, 29% and 0.1 µM.

The values are drawn from patent US20060148858A1, “1, 2-Azole derivatives with hypoglycemic and hypolipidemic activity” (priority 2002, published 2006).
